The results in this text go back to patent US20130217664A1, “NOVEL COMPOUNDS USEFUL FOR THE TREATMENT OF DEGENERATIVE AND INFLAMMATORY DISEASES” (priority 2012, published 2013).

One experiment concerns the target T1, human JAK3 (Homo sapiens, UniProt P52333).
T1 construct: catalytic domain (amino acids 781-1124; catalog number PV3855); purchased Invitrogen PV3855
The experiment can be described thus: JAK3 inhibition assay. Particulars: recombinant human JAK3 catalytic domain; polyGT substrate. It counts as biochemical. The method, boiled down: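 Radiometric kinase assay: 0.5 ng JAK3 with 2.5 μg polyGT in Tris pH 7.5/MgCl2 buffer, 1 μM ATP plus 0.25 μCi 33P-γ-ATP, 1% DMSO, 45 min at 30 °C, stopped with phosphoric acid.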

A further experiment concerns the target T2, human JAK1 (Homo sapiens, UniProt P23458).
T2 construct: catalytic domain, amino acids 866-1154; catalog number PV4774; purchased Invitrogen PV4774
The experiment can be described thus: JAK1 inhibition assay (polyGT substrate / Ulight-JAK1 peptide). Format: biochemical. The settings on record: recombinant human JAK1 catalytic domain; polyGT or Ulight-JAK1 peptide assay. The essentials: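 Signal scaled between vehicle and 10 μM staurosporine. Radiometric polyGT reactions ran 45 min at 30 °C, counted after phosphoric-acid stop. Ulight peptide reactions ran 60 min at room temperature, fluorescence read after adding Eu-PT66 detection mix with EDTA.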

Experiment [1] deals with pSTAT1(2)-luciferase reporter in HeLa cells triggered with human OSM. The experiment can be described thus: JAK-STAT signalling assay. The settings on record: HeLa cells, pSTAT1(2)-luciferase reporter, human OSM 33 ng/mL, read-out: JAK-STAT IC50. It counts as cell-based. The method, boiled down:
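Compound added 60 min before 33 ng/mL (final) human OSM; after overnight stimulation at 37 °C, luciferase signal from a transiently transfected pSTAT1(2) reporter in HeLa cells was read, with LacZ as internal control. EC50 derived from percent-inhibition dose-response curves.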

Like-named read-outs stand apart in the source and are kept apart here.

T1 sequence (P52333 781-1124): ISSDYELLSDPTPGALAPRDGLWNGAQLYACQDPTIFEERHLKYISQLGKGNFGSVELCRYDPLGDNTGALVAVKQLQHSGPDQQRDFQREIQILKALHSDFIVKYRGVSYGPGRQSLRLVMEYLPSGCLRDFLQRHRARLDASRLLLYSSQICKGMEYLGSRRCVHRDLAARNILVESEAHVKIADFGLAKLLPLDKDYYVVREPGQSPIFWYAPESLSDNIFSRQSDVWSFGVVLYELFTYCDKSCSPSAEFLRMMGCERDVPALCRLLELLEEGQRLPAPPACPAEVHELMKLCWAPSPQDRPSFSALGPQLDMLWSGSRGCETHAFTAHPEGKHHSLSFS
T2 sequence (P23458 866-1154): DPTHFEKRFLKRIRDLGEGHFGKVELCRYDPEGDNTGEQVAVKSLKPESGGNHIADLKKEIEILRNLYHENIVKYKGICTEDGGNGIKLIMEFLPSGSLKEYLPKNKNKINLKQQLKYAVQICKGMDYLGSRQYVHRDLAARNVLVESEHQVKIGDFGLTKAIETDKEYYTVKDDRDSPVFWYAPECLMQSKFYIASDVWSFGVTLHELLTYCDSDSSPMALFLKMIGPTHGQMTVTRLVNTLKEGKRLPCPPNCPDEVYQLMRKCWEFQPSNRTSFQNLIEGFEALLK

In the case of `Cc1cc(-c2cn[nH]c2)ccc1N(C)c1cc2c(cn1)ncn2C` [Compound 71, N,1-Dimethyl-N-(2-methyl-4-(1H-pyrazol-4-yl)phenyl)-1H-imidazo[4,5-c]pyridin-6-amine], the figures for the IC50 (on human JAK3; at human JAK1; in experiment [1]) were 501 to 1000 nM, 0.01 to 100 nM and greater than 1000 nM, respectively.

For the compound `Cc1cc(-c2cncnc2)ccc1N(C)c1cc2c(cn1)ncn2C` [Compound 72, N,1-dimethyl-N-(2-methyl-4-(pyrimidin-5-yl)phenyl)-1H-imidazo[4,5-c]pyridin-6-amine], the IC50 at human JAK3 was greater than 1000 nM; on human JAK1, 101 to 500 nM; in experiment [1] (Homo sapiens, HeLa), greater than 1000 nM.

Regarding `Cc1cc(-c2cnn(C)c2)ccc1N(C)c1cc2c(cn1)ncn2C` [Compound 73, N,1-dimethyl-N-(2-methyl-4-(1-methyl-1H-pyrazol-4-yl)phenyl)-1H-imidazo[4,5-c]pyridin-6-amine], the half-maximal inhibitory concentration (IC50) on human JAK3 is greater than 1000 nM; on human JAK1 it was 0.01 to 100 nM; in experiment [1] it was greater than 1000 nM.

On to `CCc1cc(C(=O)OC)ccc1N(C)c1cc2c(cn1)ncn2C` [Compound 80, Methyl 3-ethyl-4-(methyl(1-methyl-1H-imidazo[4,5-c]pyridin-6-yl)amino)benzoate], for which the IC50 at human JAK3 was greater than 1000 nM; on human JAK1 it was 0.01 to 100 nM; in experiment [1] (Homo sapiens, HeLa), greater than 1000 nM.

For `CCc1cc(CO)ccc1N(C)c1cc2c(cn1)ncn2C` [Compound 81, (3-Ethyl-4-(methyl(1-methyl-1H-imidazo[4,5-c]pyridin-6-yl)amino)phenyl)MeOH], the IC50 at human JAK3 lay within 101 to 500 nM; on human JAK1, 0.01 to 100 nM; in experiment [1] (Homo sapiens, HeLa), 1 to 500 nM.

On to `CCc1ccc(C#N)cc1N(C)c1cc2c(cn1)ncn2C` [Compound 83, 4-ethyl-3-(methyl(1-methyl-1H-imidazo[4,5-c]pyridin-6-yl)amino)benzonitrile], for which the IC50 on human JAK3 is greater than 1000 nM; at human JAK1, 0.01 to 100 nM; in experiment [1] (Homo sapiens, HeLa), greater than 1000 nM.

As to `CCc1ccc(F)cc1N(C)c1cc2c(cn1)ncn2C` [Compound 84, N-(2-ethyl-5-fluorophenyl)-N,1-dimethyl-1H-imidazo[4,5-c]pyridin-6-amine], the IC50 at human JAK3 fell in the range of 501 to 1000 nM; on human JAK1, 0.01 to 100 nM; in experiment [1] (Homo sapiens, HeLa), 501 to 1000 nM.

For `CCc1cc(C(=O)NC)ccc1N(C)c1cc2c(cn1)ncn2C` [Compound 85], the IC50 was greater than 1000 nM on human JAK3; 0.01 to 100 nM on human JAK1; greater than 1000 nM in experiment [1] (Homo sapiens, HeLa).

Take `CCc1cc(C(=O)NCCC#N)ccc1N(C)c1cc2c(cn1)ncn2C` [Compound 86, N-(2-Cyanoethyl)-3-ethyl-4-(methyl(1-methyl-1H-imidazo[4,5-c]pyridin-6-yl)amino)benzamide]: the IC50 is greater than 1000 nM at human JAK3; 0.01 to 100 nM on human JAK1; greater than 1000 nM in experiment [1] (Homo sapiens, HeLa).

As for `Cc1ccc(Oc2ccc(C#N)nc2)cc1N(C)c1cc2c(cn1)ncn2C` [Compound 91, 5-(4-methyl-3-(methyl(1-methyl-1H-imidazo[4,5-c]pyridin-6-yl)amino)phenoxy)picolino-nitrile], the IC50 on human JAK3 was greater than 1000 nM; at human JAK1, 0.01 to 100 nM; in experiment [1], greater than 1000 nM.

On to `CCc1cc(-c2cnn(C)c2)ccc1N(C)c1cc2c(cn1)ncn2C` [Compound 93, N-(2-Ethyl-4-(1-methyl-1H-pyrazol-4-yl)phenyl)-N,1-dimethyl-1H-imidazo[4,5-d]pyridin-6-amine], for which the IC50 at human JAK3 is 101 to 500 nM; at human JAK1, 0.01 to 100 nM; in experiment [1] (Homo sapiens, HeLa) it was 1 to 500 nM.

On to `CCc1cc(-c2cccnc2)ccc1N(C)c1cc2c(cn1)ncn2C` [Compound 94, N-(2-ethyl-4-(pyridin-3-yl)phenyl)-N,1-dimethyl-1H-imidazo[4,5-c]pyridin-6-amine], for which the IC50 at human JAK3 was in the range of 501 to 1000 nM; at human JAK1, 0.01 to 100 nM; in experiment [1] (Homo sapiens, HeLa) it was 1 to 500 nM.

With `CCc1cc(-c2cncnc2)ccc1N(C)c1cc2c(cn1)ncn2C` [Compound 95, N-(2-ethyl-4-(pyrimidin-5-yl)phenyl)-N,1-dimethyl-1H-imidazo[4,5-c]pyridin-6-amine], the IC50 on human JAK3 was greater than 1000 nM; at human JAK1, 0.01 to 100 nM; in experiment [1] (Homo sapiens, HeLa), 501 to 1000 nM.
